Assays:
Protein smoothened [1] = molecular target: T1, Protein smoothened (Mus musculus, UniProt P56726); type: cell-based, TM3
Description: Inhibition of Smoothened receptor in mouse TM3 cells transfected with pTA-8xGli-Luc reporter gene assessed as inhibition of 25 nM 3-chloro-4,7-difluoro-N-(4-methoxy-3-(pyridin-4-yl)benzyl)-N-(4-(methylamino)cyclohexyl)benzo[b]thiophene-2-carboxamide-induced Hedgehog pathway activation by Gli shift assay

Protein smoothened [2] = molecular target: T1, Protein smoothened; experiment: Inhibition of Smoothened receptor in mouse TM3 cells transfected with pTA-8xGli-Luc reporter gene assessed as inhibition of 1 nM 3-chloro-4,7-difluoro-N-(4-methoxy-3-(pyridin-4-yl)benzyl)-N-(4-(methylamino)cyclohexyl)benzo[b]thiophene-2-carboxamide-induced Hedgehog pathway activation by Gli shift assay; type: cell-based
Protein smoothened [3] = molecular target: T1, Protein smoothened; experiment: Displacement of [3H]3-chloro-4,7-difluoro-N-(4-methoxy-3-(pyridin-4-yl)benzyl)-N-(4-(methylamino)cyclohexyl)benzo[b]thiophene-2-carboxamide from mouse Smoothened receptor expressed in CHO-K1 cells by membrane filter binding assay; type: cell-based
Protein smoothened [4] = molecular target: Protein smoothened (Homo sapiens, UniProt Q99835); experiment: Displacement of [3H]3-chloro-4,7-difluoro-N-(4-methoxy-3-(pyridin-4-yl)benzyl)-N-(4-(methylamino)cyclohexyl)benzo[b]thiophene-2-carboxamide from human Smoothened receptor expressed in CHO-K1 cells by membrane filter binding assay; type: cell-based
Sequence of Protein smoothened (Homo sapiens, UniProt Q99835) (Q99835 whole entry): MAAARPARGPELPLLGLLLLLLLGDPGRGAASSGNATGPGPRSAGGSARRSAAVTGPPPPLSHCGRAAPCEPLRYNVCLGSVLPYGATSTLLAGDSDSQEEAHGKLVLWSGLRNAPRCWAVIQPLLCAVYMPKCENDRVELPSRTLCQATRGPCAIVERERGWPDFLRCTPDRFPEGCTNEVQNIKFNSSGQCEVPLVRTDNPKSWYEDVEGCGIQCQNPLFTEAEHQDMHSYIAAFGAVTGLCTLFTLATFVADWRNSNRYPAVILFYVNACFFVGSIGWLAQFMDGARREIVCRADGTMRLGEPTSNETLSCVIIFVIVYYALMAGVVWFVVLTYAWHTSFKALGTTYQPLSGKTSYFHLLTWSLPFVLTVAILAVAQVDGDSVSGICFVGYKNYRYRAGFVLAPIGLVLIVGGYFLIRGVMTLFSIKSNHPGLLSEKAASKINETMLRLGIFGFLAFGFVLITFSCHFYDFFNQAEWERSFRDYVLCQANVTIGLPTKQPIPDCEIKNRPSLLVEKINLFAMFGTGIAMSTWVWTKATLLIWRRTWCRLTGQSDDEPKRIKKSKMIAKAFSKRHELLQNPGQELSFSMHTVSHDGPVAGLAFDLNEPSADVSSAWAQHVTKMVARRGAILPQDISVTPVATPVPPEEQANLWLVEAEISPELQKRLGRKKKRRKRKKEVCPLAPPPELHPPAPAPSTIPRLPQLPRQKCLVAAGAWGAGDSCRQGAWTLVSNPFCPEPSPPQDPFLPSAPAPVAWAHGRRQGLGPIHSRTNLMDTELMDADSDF

[5] = AUC (0 to infinity) in nude mouse plasma at 1 mg/kg, iv after 24 hrs; type: ADME, organism-based; parameters: time infinity, dose 1 mg/kg, route intravenous
[6] = AUC (0 to infinity) in nude mouse plasma at 5 mg/kg, po after 24 hrs; type: ADME, organism-based; parameters: time infinity, dose 5 mg/kg, route oral
[7] = AUC (0 to infinity) in nude mouse brain at 5 mg/kg, po after 24 hrs; type: ADME, organism-based; parameters: dose 5 mg/kg, route oral, time infinity
[8] = Ratio of AUC (0 to infinity) in brain to AUC (0 to infinity) in plasma of nude mouse at 5 mg/kg, po after 24 hrs; type: ADME, organism-based; parameters: dose 5 mg/kg, route oral; conditions: read-out: Ratio AUC
[9] = Clearance in nude mouse plasma at 1 mg/kg, iv after 24 hrs; type: ADME, organism-based; parameters: dose 1 mg/kg, route intravenous
[10] = Volume of distribution at steady state in nude mouse plasma at 1 mg/kg, iv after 24 hrs; type: ADME, organism-based; parameters: dose 1 mg/kg, route intravenous; conditions: read-out: Vdss
[11] = Half life in nude mouse plasma at 1 mg/kg, iv after 24 hrs; type: ADME, organism-based; parameters: dose 1 mg/kg, route intravenous
[12] = Cmax in nude mouse plasma at 5 mg/kg, po after 24 hrs; type: ADME, organism-based; parameters: dose 5 mg/kg, route oral
[13] = Cmax in nude mouse brain at 5 mg/kg, po after 24 hrs; type: ADME, organism-based; parameters: dose 5 mg/kg, route oral
[14] = Ratio of Cmax in brain to Cmax in plasma of nude mouse at 5 mg/kg, po after 24 hrs; type: ADME, organism-based; parameters: dose 5 mg/kg, route oral; conditions: read-out: Ratio_Cmax_brain/plasma
[15] = Tmax in nude mouse plasma at 5 mg/kg, po after 24 hrs; type: ADME, organism-based; parameters: dose 5 mg/kg, route oral
[16] = Oral bioavailability in nude mouse plasma at 5 mg/kg after 24 hrs; type: ADME, organism-based
Mus musculus [17] = experiment: Hepatic blood flow in nude mouse at 1 mg/kg, iv; type: ADME, organism-based, Liver; parameters: dose 1 mg/kg, route intravenous; conditions: in vivo
Mus musculus [18] = experiment: Total body water content in nude mouse at 1 mg/kg, iv; type: ADME, organism-based; parameters: dose 1 mg/kg, route intravenous; conditions: in vivo
[19] = Antitumor activity against mouse Ptch+/- p53-/- medulloblastoma cells xenografted Harlan nu/nu mouse at 5 mg/kg, po qd administered after 7 days tumor implantation measured after 12 days relative to control; type: functional, Medulloblastoma cell
[20] = Antitumor activity against mouse Ptch+/- p53-/- medulloblastoma cells xenografted Harlan nu/nu mouse at 10 mg/kg, po qd administered after 7 days tumor implantation measured after 12 days relative to control; type: functional, Medulloblastoma cell
[21] = Antitumor activity against mouse Ptch+/- p53-/- medulloblastoma cells xenografted Harlan nu/nu mouse at 20 mg/kg, po qd administered after 7 days tumor implantation measured after 12 days relative to control; type: functional, Medulloblastoma cell
[22] = Antitumor activity against mouse Ptch+/- p53-/- medulloblastoma cells xenografted Harlan nu/nu mouse at 40 mg/kg, po qd administered after 7 days tumor implantation measured after 12 days relative to control; type: functional, Medulloblastoma cell
[23] = Antitumor activity against mouse Ptch+/- p53-/- medulloblastoma cells xenografted Harlan nu/nu mouse at 5 mg/kg, po bid administered after 7 days tumor implantation measured after 12 days relative to control; type: functional, Medulloblastoma cell
[24] = Antitumor activity against mouse Ptch+/- p53-/- medulloblastoma cells xenografted Harlan nu/nu mouse at 10 mg/kg, po bid administered after 7 days tumor implantation measured after 12 days relative to control; type: functional, Medulloblastoma cell
[25] = Antitumor activity against mouse Ptch+/- p53-/- medulloblastoma cells xenografted Harlan nu/nu mouse assessed as tumor regression at 20 mg/kg, po bid administered after 7 days tumor implantation measured after 12 days; type: functional, Medulloblastoma cell
[26] = Antitumor activity against mouse Ptch+/- p53-/- medulloblastoma cells xenografted Harlan nu/nu mouse assessed as tumor regression at 40 mg/kg, po bid administered after 7 days tumor implantation measured after 12 days; type: functional, Medulloblastoma cell
Medulloblastoma cell [27] = experiment: Antitumor activity against mouse Ptch+/- p53-/- medulloblastoma cells xenografted po dosed Harlan nu/nu mouse assessed as tumor regression administered after 7 days tumor implantation measured after 12 days; type: functional, organism-based
Mus musculus [28] = experiment: Toxicity in mouse Ptch+/- p53-/- medulloblastoma cells xenografted Harlan nu/nu mouse at 5 to 40 mg/kg, po qd administered after 7 days tumor implantation measured after 12 days; type: organism-based; parameters: dose 5-40 mg/kg, route oral; conditions: in vivo, 288 h
Mus musculus [29] = experiment: Toxicity in mouse Ptch+/- p53-/- medulloblastoma cells xenografted Harlan nu/nu mouse at 5 to 40 mg/kg, po bid administered after 7 days tumor implantation measured after 12 days; type: organism-based; parameters: dose 5-40 mg/kg, route oral; conditions: in vivo, 288 h
Mus musculus [30] = experiment: Toxicity in mouse Ptch+/- p53-/- medulloblastoma cells xenografted Harlan nu/nu mouse assessed as change in body weight at 5 to 40 mg/kg, po qd administered after 7 days tumor implantation measured after 12 days; type: organism-based; parameters: dose 5-40 mg/kg, route oral; conditions: in vivo, 288 h
Mus musculus [31] = experiment: Toxicity in mouse Ptch+/- p53-/- medulloblastoma cells xenografted Harlan nu/nu mouse assessed as change in body weight at 5 to 40 mg/kg, po bid administered after 7 days tumor implantation measured after 12 days; type: organism-based; parameters: dose 5-40 mg/kg, route oral; conditions: in vivo, 288 h
Medulloblastoma cell [32] = experiment: Inhibition of Gli mRNA expression in mouse medulloblastoma cells at 5 mg/kg, po by RT-PCR; type: functional, organism-based; parameters: dose 5 mg/kg; conditions: TDE = time-dependent effect
Medulloblastoma cell [33] = experiment: Inhibition of Gli mRNA expression in mouse medulloblastoma cells at 40 mg/kg, po by RT-PCR; type: functional, organism-based; parameters: dose 40 mg/kg; conditions: TDE = time-dependent effect
Medulloblastoma cell [34] = experiment: Inhibition of Gli mRNA expression in mouse medulloblastoma cells after 1 to 24 hrs by RT-PCR; type: functional
[35] = Tmax in nude mouse brain at 5 mg/kg, po after 24 hrs; type: ADME, organism-based; parameters: dose 5 mg/kg, route oral

T1 sequence (P56726 whole entry): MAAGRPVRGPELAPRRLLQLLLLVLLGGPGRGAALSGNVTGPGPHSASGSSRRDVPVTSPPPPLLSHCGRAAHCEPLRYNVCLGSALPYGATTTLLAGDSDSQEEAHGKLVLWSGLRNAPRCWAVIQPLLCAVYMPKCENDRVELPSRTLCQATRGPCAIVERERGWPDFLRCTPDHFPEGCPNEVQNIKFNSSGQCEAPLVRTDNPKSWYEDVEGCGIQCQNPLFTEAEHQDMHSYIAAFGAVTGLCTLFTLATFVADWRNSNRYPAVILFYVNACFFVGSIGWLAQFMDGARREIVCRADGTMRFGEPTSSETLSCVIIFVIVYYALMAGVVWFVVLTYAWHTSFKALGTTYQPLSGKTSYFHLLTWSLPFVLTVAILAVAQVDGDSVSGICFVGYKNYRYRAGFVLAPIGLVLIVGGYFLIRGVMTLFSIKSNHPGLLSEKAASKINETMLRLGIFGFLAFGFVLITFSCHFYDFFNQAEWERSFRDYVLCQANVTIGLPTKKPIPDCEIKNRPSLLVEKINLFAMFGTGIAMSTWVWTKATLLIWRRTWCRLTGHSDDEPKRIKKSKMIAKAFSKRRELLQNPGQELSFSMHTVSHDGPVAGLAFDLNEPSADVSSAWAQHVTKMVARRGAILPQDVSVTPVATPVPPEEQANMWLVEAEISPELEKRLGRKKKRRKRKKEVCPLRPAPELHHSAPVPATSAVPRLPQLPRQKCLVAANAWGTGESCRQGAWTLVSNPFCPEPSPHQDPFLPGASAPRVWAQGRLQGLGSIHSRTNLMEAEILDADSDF

IC50 (Protein smoothened [1]): 35 nM | IC50 (Protein smoothened [2]): 2.7 nM | IC50 (Protein smoothened [3]): 5 nM | IC50 (Protein smoothened [4]): 8 nM | AUC(0-inf) [5]: 7.23 µM·h | AUC(0-inf) [6]: 26.5 µM·h | AUC(0-inf) [7]: 8.82 µM·h | Kp at 24 h [8]: 0.33 | clearance [9]: 5.24 mL/min/kg | Vd [10]: 0.2 L/kg | half-life [11]: 31.8 min | Cmax [12]: 15.7 µM | Cmax [13]: 2.39 µM | Kp at 24 h [14]: 0.15 | Tmax [15]: 15 min | bioavailability [16]: 73% | QH (Mus musculus [17]): 90 mL/min/kg | Activity (Mus musculus [18]): 0.7 L/kg | Tmax [35]: 15 min
SMILES: CC(C)(O)c1ccc(N2CCN(c3nnc(Cc4ccccc4)c4ccccc34)CC2)nc1
T/C [19]: 80% | T/C [20]: 77% | T/C [21]: 45% | T/C [22]: 19% | T/C [23]: 69% | T/C [24]: 40% | T/C [25]: 15% | T/C [26]: 71% | Activity (Medulloblastoma cell [27]): Dose-dependent effect | Activity (Mus musculus [28]): Non-toxic | Activity (Mus musculus [29]): Non-toxic | Activity (Mus musculus [30]): Non-toxic | Activity (Mus musculus [31]): Non-toxic | Activity (Medulloblastoma cell [32]): tde | Activity (Medulloblastoma cell [33]): tde | Activity (Medulloblastoma cell [34]): Dose-dependent effect

— ChEMBL document CHEMBL1136988, “1-amino-4-benzylphthalazines as orally bioavailable smoothened antagonists with antitumor activity” (J Med Chem, 2009)
